The values below come from US20250270180A1, “MEK INHIBITORS AND THERAPEUTIC USES THEREOF” (Immuneering Corporation, priority 2020, published 2025).

The subject of this test is A549 pERK. Nature of the test: A549-pERK, 2 h (quantitative Western, Jess). Format: cell-based. The following applies: Homo sapiens, phospho:total ratio normalized to DMSO control. The protocol:
A549 or […] cells were treated in duplicate for two hours with compounds at varying concentrations. After two hours, the cells were lysed, snap frozen, and stored at −80° C. After storage, the lysate was quantified with the Bradford assay. Before the lysates were prepared to run on the Jess, the lysates were diluted to 1 mg/mL for pERK analysis and 1.5 mg/mL pMEK analysis using quantitative Western blotting. ERK and MEK phosphorylation levels were estimated by taking the ratio of phospho-protein to total protein and normalizing to the DMSO control. The results of this study are described in Tables 14-16.

For the compound `CCC(=O)NCc1c(Cc2cccc(NS(=O)(=O)NC)c2F)c(=O)oc2cc(OC(=O)N(C)C)ccc12` [Compound 207], under “A549, 2 h, 10 nM”, the activity at 0.01 µM was found to be 97.4%. Besides, the activity at 10 µM (A549, 2 h) is 11.3%.

In the case of `CNS(=O)(=O)Nc1cccc(Cc2c(CN3CCOCC3=O)c3ccc(OC(=O)N(C)C)cc3oc2=O)c1F` [Compound 181], under “A549, 2 h, 10 nM”, the activity at 0.01 µM was found to be 100%. For the same compound, the activity at 10 µM (A549, 2 h) was found to be 22.2%.

Regarding `CNS(=O)(=O)Nc1cccc(Cc2c(CN3CCNC(=O)CC3)c3ccc(OC(=O)N(C)C)cc3oc2=O)c1F` [Compound 158], the activity at 0.01 µM (A549, 2 h, 10 nM) is 80%.

With `CNS(=O)(=O)Nc1cccc(Cc2c(CN(C)C)c3ccc(Oc4ncccn4)cc3oc2=O)c1F` [Compound 129], the activity at 0.01 µM (A549, 10 nM) came to 92.2%.

Take `CNS(=O)(=O)Nc1cccc(Cc2c(CO)c3ccc(OC(=O)N(C)C)cc3oc2=O)c1F` [Compound 180]: the activity at 0.01 µM (A549, 2 h, 10 nM) amounted to 75%.

In the case of `CCN1CCN(Cc2c(Cc3cccc(NS(=O)(=O)NC)c3F)c(=O)oc3cc(OC(=O)N(C)C)ccc23)CC1=O` [Compound 69], the activity at 0.01 µM (A549, 2 h, 10 nM) stood at 101%.

`CNS(=O)(=O)Nc1cccc(Cc2c(CNc3nccs3)c3ccc(OC(=O)N(C)C)cc3oc2=O)c1F` [Compound 94]: the activity at 0.01 µM (A549, 2 h, 10 nM) was found to be 93.5%.

Consider `CNS(=O)(=O)Nc1cccc(Cc2c(CC(=O)NC3CCOCC3)c3ccc(OC(=O)N(C)C)cc3oc2=O)c1F` [Compound 215], for which the activity at 0.01 µM (A549, 2 h, 10 nM) is 100%. In addition, the activity at 10 µM (A549, 2 h) came out at 11.8%.

As to `CNS(=O)(=O)Nc1cccc(Cc2c(CN3CC(Cl)C3)c3ccc(OC(=O)N(C)C)cc3oc2=O)c1F` [Compound 145], the activity at 0.01 µM (A549, 2 h, 10 nM) came out at 104%.

For the compound `CNS(=O)(=O)Nc1cccc(Cc2c(CNCC3CC3)c3ccc(OC(=O)N(C)C)cc3oc2=O)c1F` [Compound 26], the activity at 0.01 µM (A549, 2 h, 10 nM) was 94.2%.

For the compound `CNS(=O)(=O)Nc1cccc(Cc2c(CN3CC(N)C3)c3ccc(OC(=O)N(C)C)cc3oc2=O)c1F` [Compound 165], the activity at 0.01 µM (A549, 2 h, 10 nM) is 104%.

For the compound `CNS(=O)(=O)Nc1cccc(Cc2c(CNc3ccnn3C)c3ccc(OC(=O)N(C)C)cc3oc2=O)c1F` [Compound 96], under “A549, 2 h, 10 nM”, the activity at 0.01 µM was determined as 102%.

With `CNS(=O)(=O)Nc1cccc(Cc2c(CNCC(=O)N(C)c3ccccc3)c3ccc(OC(=O)N(C)C)cc3oc2=O)c1F` [Compound 220], the activity at 0.01 µM (A549, 2 h, 10 nM) was 109%. Further, the activity at 10 µM (A549, 2 h) was determined as 4.28%.

As to `CNS(=O)(=O)Nc1cccc(Cc2c(CNc3cn[nH]c3)c3ccc(OC(=O)N(C)C)cc3oc2=O)c1F` [Compound 92], the activity at 0.01 µM (A549, 2 h, 10 nM) is 93.8%.

On to `CNS(=O)(=O)Nc1cccc(Cc2c(CC(=O)N(C)C)c3ccc(OC(=O)N(C)C)cc3oc2=O)c1F` [Compound 196], for which the activity at 0.01 µM (A549, 2 h, 10 nM) is 106%.

Consider `CNS(=O)(=O)Nc1cccc(Cc2c(CNC(N)=O)c3ccc(OC(=O)N(C)C)cc3oc2=O)c1F` [Compound 105], for which the activity at 10 µM (A549, 2 h) is 7.39%.

Consider `CNS(=O)(=O)Nc1nccc(Cc2c(CN3CC(F)(F)C3)c3ccc(OC(=O)N(C)C)cc3oc2=O)c1F` [Compound 149], for which the activity at 0.01 µM (A549, 2 h, 10 nM) turned out to be 69.1%.

As for `CNS(=O)(=O)Nc1cccc(Cc2c(CN3CCN(S(C)(=O)=O)CC3)c3ccc(OC(=O)N(C)C)cc3oc2=O)c1F` [Compound 68], where the note is “A549, 2 h, 10 nM”, the activity at 0.01 µM was 68.9%.

With `CNS(=O)(=O)Nc1cccc(Cc2c(CNC(=O)C(C)(C)O)c3ccc(OC(=O)N(C)C)cc3oc2=O)c1F` [Compound 212], for the setting “A549, 2 h, 10 nM”, the activity at 0.01 µM was 100%. Moreover, the activity at 10 µM (A549, 2 h) came to 13%.

In the case of `CNS(=O)(=O)Nc1cccc(Cc2c(CNC(=O)c3c[nH]nn3)c3ccc(OC(=O)N(C)C)cc3oc2=O)c1F` [Compound 211], the activity at 0.01 µM (A549, 2 h, 10 nM) was 121%. Moreover, under “A549, 2 h”, the activity at 10 µM was 70.8%.

`CNS(=O)(=O)Nc1cccc(Cc2c(CN3CC(C(N)=O)C3)c3ccc(OC(=O)N(C)C)cc3oc2=O)c1F` [Compound 173]: the activity at 0.01 µM (A549, 2 h, 10 nM) is 97.7%.

Regarding `CNS(=O)(=O)Nc1cccc(Cc2c(CNCCC(F)(F)F)c3ccc(OC(=O)N(C)C)cc3oc2=O)c1F` [Compound 66], the activity at 0.01 µM (A549, 2 h, 10 nM) was 104%.

Regarding `CCN(C)Cc1c(Cc2cccc(NS(=O)(=O)CC)c2F)c(=O)oc2cc(OC(=O)N(C)C)c(Cl)cc12` [Compound 166], the activity at 0.01 µM (A549, 2 h, 10 nM) came out at 60.9%.
